# Reference: patent US10420747B2 (priority 2016, dated 2019)
# How the values were obtained:
# HSP90 and HSP70 = test: Western blotting of AR molecular chaperones; type: cell-based, human; settings: LNCaP and 22RV1, 12 hours
# Procedure: Cells were lysed and AR, HSP90 and HSP70 protein levels were measured by Western blot analysis.
# Lysates were fractionated on polyacrylamide gels and transferred to nitrocellulose. The blots were probed with specific antibodies followed by secondary antibody then membranes were examined using the LI-COR Odyssey infrared imaging system (LI-COR Biotechnology, Lincoln Nebr.). […] The β-actin antibody (1:10000) was purchased from Sigma (St. Louis, Mo.).
# in vivo = test: in vivo; design: species or system rat; settings: for T1/2: rats
# Procedure: A simple and sensitive method for the determination of Ailanthonein plasma was developed, using high-performance liquid chromatography-tandem mass spectrometry (HPLC-MS/MS). Brusatol was used as an internal standard. […] The details of this HPLC-MS/MS method and sample preparation are described in our previous study^37.
# The statistical analysis was performed by SPSS 22.0 software. The differences between control group and experimental groups were determined by one-way ANOVA. Since treatment and time course was investigated, two-way ANOVA followed by post hoc test was also applied. Data was expressed as mean and standard deviation (s.d.) and P<0.05 was considered significant. Pharmacokinetic parameters were calculated by WinNonlin software version 5.2.1 (Pharsight Corporation, Mountain View, USA) based on noncompartmental analysis.
# Sprague-Dawley rats (purchased from Shanghai SLAC laboratory animal Co. Ltd., Shanghai, China) were fasted for 12 h with free access to water prior to the pharmacokinetic study. The rats were randomized into two groups for oral administration (5 mg/kg) and intravenous injection (1 mg/kg). Blood samples were collected from the orbital plexus into heparinized centrifuge tubes at fifteen different time points between 5 min to 36 h for the oral administration group and nine time points between 5 min to 6 h for the intravenous one. The pharmacokinetic parameters were calculated by WinNonlin software version 5.2.1 based on noncompartmental analysis. Oral bioavailability was calculated as F (%)=AUC0-∞(p.o.)/AUC0-∞(i.v.)×Dose (i.v.)/Dose (p.o.).
# [1] = tested on: CYP2C11, CYP3A1/2 and CYP1A2; settings: mouse, in vivo
# Procedure: FIG. 6A-FIG. 6H. Pharmacokinetic studies of AIL. […] Images show tumors at harvest (30 days after treatment). Scale bar, 1 cm. […] AIL or vehicle control was measured by Western blotting analysis (D) and the livers were photographed and stained with HE (e). Scale bar, the black scale bar is 1 cm (top) and the white scale bar is 50 μm (bottom). […] Scale bar, 1 cm.
# LNCaP-MDV3100-R cells = test: SRB cell growth assay, MDV3100-resistant cells; settings: 72 hours, 20 μM BIC, 20 μM MDV, 0.1 μM AIL
# Procedure: Cell growth was determined by SRB assay.
# The half maximal inhibitory concentration (IC50) was calculated using GraphPad Prism 5.0 (GraphPad, San Diego, Calif.).
# 22RV1 = test: SRB cell growth assay, androgen-starved cells with R1881; settings: androgen-starved 22RV1, 0.1 nM R1881, 96 hours; 10 μM BIC, 10 μM MDV, 0.1 μM AIL
# VCaP xenografts = test: Subcutaneous VCaP xenograft model; type: in vivo, mouse; settings: 10 mg/kg MDV or 2 mg/kg AIL i.p., 32 days
# Procedure: (A-C) 22RV1 (A), LNCaP (B) and Vcap (C) cells were injected with 0.1 ml PBS (22RV1) or Matrigel (LNCaP, Vcap) into the right flank of BALB/c-nude. […] Tumor volume and the mouse body weight were measured once a week. The mice were sacrificed after 28 days (22RV1), 49 days (LNCaP) or 32 days (Vcap) and the tumors from each group of mice were harvested and images were taken. […] Data represent the mean±s.d.
# BALB/c-nude mice (6-8 weeks old, male) were purchased from the Sino-British Sippr/BK Lab Animal Co., Ltd (Shanghai, China) and maintained under pathogen-free conditions. The animal use protocol was approved by the Institutional Animal Care and Use Committee of East China Normal University. […] The tumor volume and mouse body weight were measured twice a week. The tumor volume was calculated using the following equation: tumor volume (V)=length×width×width×0.52.
# BALB/c-nude mice (6-8 week old, male) were purchased from the Sino-British Sippr/BK Lab Animal Co., Ltd (Shanghai, China) and maintained under pathogen-free conditions. […] The tumor volume and mouse body weight were measured twice a week. The tumor volume was calculated using the following equation: tumor volume (V)=length×width×width×0.52.
# LNCaP cells = test: SRB cell growth assay, androgen-starved cells with R1881; settings: 0.1 nM R1881, 96 hours, 10 μM BIC, 10 μM MDV, 0.1-0.4 μM AIL
# [2] = tested on: AR-regulated genes (PSA, TMPRSS2, FKBP5, SLC45A3, NDRG1 mRNA); test: Quantitative real-time PCR of AR-regulated genes; settings: 22RV1 cells, 10 nM R1881, 10 μM MDV or 0.2 μM AIL, 12 hours
# Procedure: The genes expression was measured byquantitative-PCR.
# Total RNA was extracted using TRIzol (Takara, Japan) according to the manufacturer's instructions. 1 μg of total RNA was used for cDNA synthesis using a cDNA reverse transcription kit (Takara, Japan). Real-time PCR was performed in triplicate using gene-specific primers on a Stratagene Mx3005P PCR system (Agilent Technologies) machine. The mRNA expression levels were normalized to β-actin expression or GAPDH.
# c4-2b = test: SRB cell growth assay, androgen-starved cells with R1881; settings: androgen-starved c4-2b, 0.1 nM R1881, 96 hours; 10 μM BIC, 10 μM MDV, 0.1 μM AIL
# [3] = tested on: 22RV1-luc orthotopic xenografts; test: Orthotopic castration resistant prostate cancer model; type: in vivo, mouse; settings: castrated mice, 2 mgkg^−1 AIL or 10 mgkg^−1 MDV i.p. once per day, 28 days
# Procedure: (A,B) The dorsolateral prostate of male BALB/c-nude mice was injected with 1×10^6 22RV1-luc cells in 30 μl matrigel. […] After 28 days, mice were sacrificed and the local tumors were removed and volumes and weight of the tumors were measured (A).
# For orthotopic castration resistant prostate cancer xenografts, male BALB/c-nude mice (8-9 weeks of age) were anesthetized using 150 mgkg^−1 2,2,2-tribromethanol plus 350 mgkg^−1 tert-amyl alcohol and then 5×10^5 22RV1-luc cells suspended in 30 μl 50% Matrigel were surgically injected into the dorsolateral prostate lobes. One week after injection, the tumor-bearing mice were castrated and randomly assigned to three groups. […] Prostate tumor growth and local metastasis were monitored weekly using the IVIS Imaging System (Xenogen Corporation, Alameda, Calif.). Images and measurements of bioluminescent signals were acquired and analyzed using LivingImage and Xenogen software^52.
# [4] = Sprague-Dawley, rat, in vivo, iv, 1 mg/kg
# [5] = Sprague-Dawley, rat, in vivo, po, 5 mg/kg
smiles,measurement,setting,value
C=CCNC1=C2C[C@@H](C)C[C@H](OC)[C@H](O)[C@@H](C)/C=C(\C)[C@H](OC(N)=O)[C@@H](OC)/C=C\C=C(/C)C(=O)NC(=CC1=O)C2=O [17-AAG],HSP90 and HSP70 protein levels,HSP90 and HSP70,induced up-regulation of HSP90 and HSP70 protein
"C=C1[C@@H](O)[C@]2(O)OC[C@]34[C@H]2[C@@]2(C)[C@H](O)C(=O)C=C(C)[C@@H]2C[C@H]3OC(=O)C[C@@H]14 [AIL, 11β,20-Epoxy-1β,11,12α-trihydroxypicrasa-3,13(21)-diene-2,16-dione]",Bioavailability (oral),"in vivo; Sprague-Dawley, rat, in vivo",25.7%
same,bioavailability,"in vivo; Sprague-Dawley, rat, in vivo",> 20%
same,AUC0-t,in vivo; [4],57874.3 ± 6871.1 ng·min/mL
same,AUC0-∞,in vivo; [4],61517.4 ± 5986.2 ng·min/mL
same,AUC0-t,in vivo; [5],67324.5 ± 7405.3 ng·min/mL
same,AUC0-∞,in vivo; [5],79053.9 ± 14616.6 ng·min/mL
same,"absorption, elimination and distribution after oral administration","in vivo; rat, in vivo, po","absorbed quickly, eliminated rapidly and distributed widely in tissues"
same,T1/2,"in vivo; i.v. 1 mg kg^−1, mean ± s.d.",1.888 ± 0.66 h
same,T1/2,"in vivo; p.o. 5 mg kg^−1, mean ± s.d.",12.17 ± 2.598 h
same,expression of CYP enzymes in liver,[1],did not influence the expression
CNC(=O)c1ccc(N2C(=S)N(c3ccc(C#N)c(C(F)(F)F)c3)C(=O)C2(C)C)cc1F [MDV],cell growth (SRB),LNCaP-MDV3100-R cells,totally resistant
same,cell growth (SRB),22RV1,could not significantly inhibit cell growth
same,xenograft sensitivity (tumor volume),VCaP xenografts,still responded
same,cell growth (SRB),LNCaP cells,effectively blocked cell growth
same,PSA mRNA level in the presence of R1881,[2],decreased
same,cell growth (SRB),c4-2b,could not significantly inhibit cell growth
same,reduction of tumor volume,[3],15%
